Data published in PMC8343220, “The selectivity of α‐adrenoceptor agonists for the human α1A, α1B, and α1D‐adrenoceptors” (Pharmacology Research & Perspectives, 2021).

Tests used:
[1] = tested on: parental CHO cell line without any transfected receptors; experiment: ERK1/2‐phosphorylation, parent CHO cells without transfected receptors; type: cell-based, Chinese hamster; details: Cricetulus griseus, CHO; read-out: ERK1/2-phosphorylation % PDBu at 100μM
human α1B‐adrenoceptor [2] = target: T1, human α1B‐adrenoceptor (Homo sapiens, UniProt P35368); experiment: ^3H‐cAMP accumulation in the presence of 10 μM forskolin, CHO‐α1B cells; type: cell-based; details: CHO‐α1B cells; for cAMP accumulation (in presence of forskolin) Fold increase: fold increase of the forskolin response; for EC50: in presence of forskolin, read-out: cAMP accumulation (in presence of forskolin) Log EC50 (converted)
T1 construct: expressed in transfected cells; host or cells: CHO-K1
T1 sequence (P35368 1-520): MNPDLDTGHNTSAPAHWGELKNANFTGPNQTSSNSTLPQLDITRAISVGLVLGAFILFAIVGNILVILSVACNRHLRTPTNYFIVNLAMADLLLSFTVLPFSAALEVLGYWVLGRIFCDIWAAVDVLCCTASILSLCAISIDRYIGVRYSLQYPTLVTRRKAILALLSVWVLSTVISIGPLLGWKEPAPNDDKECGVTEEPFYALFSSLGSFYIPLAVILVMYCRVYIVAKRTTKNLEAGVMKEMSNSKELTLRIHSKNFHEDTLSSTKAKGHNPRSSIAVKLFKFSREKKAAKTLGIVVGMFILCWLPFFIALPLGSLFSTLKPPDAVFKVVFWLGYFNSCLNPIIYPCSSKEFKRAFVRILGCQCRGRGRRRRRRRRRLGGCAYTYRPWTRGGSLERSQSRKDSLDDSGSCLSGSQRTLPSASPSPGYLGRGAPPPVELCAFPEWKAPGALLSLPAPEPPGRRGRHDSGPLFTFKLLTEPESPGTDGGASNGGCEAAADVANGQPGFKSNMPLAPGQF

[3] = target: T2, human α1D‐adrenoceptor (full length) (Homo sapiens, UniProt P25100); experiment: Intracellular free calcium mobilization, CHO‐α1D cells; type: cell-based; details: CHO‐α1D cells
T2 construct: human α1D‐adrenoceptor (full length) were used; expressed in transfected cells; host or cells: CHO-K1
T2 sequence (P25100 1-572): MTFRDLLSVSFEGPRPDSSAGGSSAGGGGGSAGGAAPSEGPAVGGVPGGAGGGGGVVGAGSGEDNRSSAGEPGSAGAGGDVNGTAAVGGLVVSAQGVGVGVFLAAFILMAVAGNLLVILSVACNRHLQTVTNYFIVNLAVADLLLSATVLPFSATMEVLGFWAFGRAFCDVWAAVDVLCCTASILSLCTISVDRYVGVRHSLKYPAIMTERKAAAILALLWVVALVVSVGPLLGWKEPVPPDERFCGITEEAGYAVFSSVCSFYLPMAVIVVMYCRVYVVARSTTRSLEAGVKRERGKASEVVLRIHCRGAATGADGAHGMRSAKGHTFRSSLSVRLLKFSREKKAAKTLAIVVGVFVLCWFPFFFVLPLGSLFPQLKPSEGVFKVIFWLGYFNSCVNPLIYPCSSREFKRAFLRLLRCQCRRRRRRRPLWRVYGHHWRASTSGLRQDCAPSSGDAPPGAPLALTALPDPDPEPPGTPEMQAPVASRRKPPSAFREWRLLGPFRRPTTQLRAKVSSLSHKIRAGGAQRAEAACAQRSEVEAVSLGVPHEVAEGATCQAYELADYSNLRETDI

[4] = tested on: parental CHO cell line without any transfected receptors; experiment: Forskolin‐stimulated cAMP accumulation, parent CHO cells without transfected receptors; type: cell-based, Chinese hamster; details: CHO cells without transfected receptors; in presence of forskolin
[5] = target: T2, human α1D‐adrenoceptor (full length); experiment: ERK1/2‐phosphorylation (Surefire Alphascreen), CHO‐α1D cells; type: cell-based; details: CHO‐α1D cells; for ERK1/2‐phosphorylation % PDBu: maximal response as % of PDBu
human α1B‐adrenoceptor [6] = target: T1, human α1B‐adrenoceptor; experiment: Intracellular free calcium mobilization, CHO‐α1B cells; type: cell-based; details: CHO‐α1B cells; for EC50: given as log EC50 (negative numbers), read-out: Intracellular calcium release Log EC50 (converted); for Log efficacy ratio KD /EC50: intrinsic efficacy ratio, KD from binding / EC50 calcium; for Intracellular calcium release % ionomycin: maximal response as % of 10 µM ionomycin response
[7] = target: T2, human α1D‐adrenoceptor (full length); experiment: ^3H‐cAMP accumulation in the presence of 10 μM forskolin, CHO‐α1D cells; type: cell-based; details: CHO‐α1D cells
human α1B‐adrenoceptor [8] = target: T1, human α1B‐adrenoceptor; experiment: ^3H‐cAMP accumulation, CHO‐α1B cells; type: cell-based; details: CHO‐α1B cells; for cAMP accumulation % forskolin: % forskolin maximum response; for EC50: read-out: cAMP accumulation Log EC50 (converted)
human α1A‐adrenoceptor [9] = target: T3, human α1A‐adrenoceptor (Homo sapiens, UniProt P35348); experiment: ERK1/2‐phosphorylation (Surefire Alphascreen), CHO‐α1A cells; type: cell-based; details: CHO‐α1A cells, ^a bi‐phasic: initial stimulatory part; for EC50: 2–4 min, ^b also active in parent CHO cells, read-out: ERK1/2‐phosphorylation Log EC50 (converted); for ERK1/2‐phosphorylation % PDBu: % of 10 µM PDBu
T3 construct: expressed in transfected cells; host or cells: CHO-K1
T3 sequence (P35348 1-466): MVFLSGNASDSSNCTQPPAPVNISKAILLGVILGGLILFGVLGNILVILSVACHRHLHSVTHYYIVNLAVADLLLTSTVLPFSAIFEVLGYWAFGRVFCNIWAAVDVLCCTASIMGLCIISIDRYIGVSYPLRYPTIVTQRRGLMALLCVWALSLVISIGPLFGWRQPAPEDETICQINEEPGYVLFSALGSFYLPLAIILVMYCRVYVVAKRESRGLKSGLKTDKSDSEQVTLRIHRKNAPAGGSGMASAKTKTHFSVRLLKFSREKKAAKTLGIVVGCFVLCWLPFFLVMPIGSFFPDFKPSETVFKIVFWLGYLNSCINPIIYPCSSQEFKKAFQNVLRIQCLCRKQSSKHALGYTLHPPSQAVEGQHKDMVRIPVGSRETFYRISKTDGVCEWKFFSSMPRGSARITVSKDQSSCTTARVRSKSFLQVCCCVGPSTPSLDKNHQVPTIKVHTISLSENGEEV

human α1B‐adrenoceptor [10] = target: T1, human α1B‐adrenoceptor; experiment: ^3H‐prazosin whole‐cell radioligand binding, CHO‐α1B cells; details: CHO‐α1B cells
human α1B‐adrenoceptor [11] = target: T1, human α1B‐adrenoceptor; experiment: ERK1/2‐phosphorylation (Surefire Alphascreen), CHO‐α1B cells; type: cell-based; details: CHO‐α1B cells, for bi‐phasic responses the initial stimulatory part; for EC50: read-out: ERK1/2‐phosphorylation Log EC50 (converted); for ERK1/2‐phosphorylation % PDBu: maximal response as % PDBu response
[12] = target: T2, human α1D‐adrenoceptor (full length); experiment: ^3H‐prazosin whole‐cell radioligand binding, CHO‐α1D cells; details: for Kd: CHO‐α1D cells; for Affinity selectivity ratio α1B vs α1D: higher affinity for α1D than α1B
human α1A‐adrenoceptor [13] = target: T3, human α1A‐adrenoceptor; experiment: Intracellular free calcium mobilization, CHO‐α1A cells; type: cell-based; details: CHO‐α1A cells; for Log efficacy ratio KD /EC50: binding KD and calcium EC50; for EC50: given as log EC50 (negative), read-out: Intracellular calcium release Log EC50 (converted); for Intracellular calcium release % ionomycin: maximal response as % of 10 µM ionomycin

Row | cAMP accumulation (in presence of forskolin) Fold increase (human α1B‐adrenoceptor [2]) [fold] | EC50 (human α1B‐adrenoceptor [2]) [nM] | ERK1/2‐phosphorylation % PDBu [5] | EC50 (human α1B‐adrenoceptor [6]) [nM] | Log efficacy ratio KD /EC50 (human α1B‐adrenoceptor [6]) | Intracellular calcium release % ionomycin (human α1B‐adrenoceptor [6]) [%] | cAMP accumulation % forskolin (human α1B‐adrenoceptor [8]) [%] | EC50 (human α1B‐adrenoceptor [8]) [nM] | EC50 (human α1A‐adrenoceptor [9]) [nM] | ERK1/2‐phosphorylation % PDBu (human α1A‐adrenoceptor [9]) [%] | EC50 (human α1B‐adrenoceptor [11]) [nM] | ERK1/2‐phosphorylation % PDBu (human α1B‐adrenoceptor [11]) [%] | Affinity selectivity ratio α1B vs α1D [12] [fold] | Log efficacy ratio KD /EC50 (human α1A‐adrenoceptor [13]) | EC50 (human α1A‐adrenoceptor [13]) [nM] | Intracellular calcium release % ionomycin (human α1A‐adrenoceptor [13]) [%] | Structure (SMILES) | Emax at 100 µM [1] [%] | cAMP accumulation (in presence of forskolin) Log EC50 [4] | further results
1 | 2.67 ± 0.18 | 324 | 16.1 ± 4.0% | 26.9 | 3.70 | 59.0 ± 2.4 | 39.0 ± 5.8 | 1620 | 34.7 | 87.4 ± 2.3 | 195 | 97.4 ± 2.7 | 11.5 | 1.95 | 52.5 | 56.8 ± 2.2 | N=C(N)NC(=O)Cc1c(Cl)cccc1Cl [Guanfacine] | 2.5 ± 1.7 | No response | Log efficacy ratio KD /EC50 ([3]; intrinsic efficacy ratio, binding KD / calcium EC50): 0.53; EC50 ([3]; log values given negative, read-out: Intracellular calcium release Log EC50 (converted)): 3470 nM; Intracellular calcium release % ionomycin ([3]; maximal response as % of 10 µM ionomycin): 28.6 ± 2.0%; EC50 ([5]; log values given negative, read-out: ERK1/2‐phosphorylation Log EC50 (converted)): 6920 nM; cAMP (in presence of forskolin) Fold increase ([7]; fold increase of the forskolin response): 1.20 ± 0.7; EC50 ([7]; in presence of forskolin, log values given negative): 229 nM; Kd (human α1B‐adrenoceptor [10]; given as log KD (negative), mean ± SEM): 135000 nM; Kd ([12]; given as log KD (negative), mean ± SEM, 'early plateau' = specific binding not fully inhibited): 11700 nM
2 | 2.01 ± 0.11 | 182 | No response | 89.1 | 2.70 | 48.8 ± 1.8 | 10.7 ± 1.5 | 708 | 37.2 | 82.1 ± 3.9 | 288 | 57.7 ± 5.3 | 11.5 | 1.98 | 36.3 | 53.5 ± 1.6 | Clc1ccc2nsnc2c1NC1=NCCN1 [Tizanidine] | 6.7 ± 3.3 | No response | Intracellular calcium release % Ionomycin at 100 µM ([3]; response at 100 µM ligand (no EC50 given)): 2.5 ± 0.8%; ERK1/2‐phosphorylation Log EC50 ([5]; log values given negative): No response; Kd (human α1B‐adrenoceptor [10]; Log KD α1B, ^3H‐prazosin whole cell binding, given as log KD (negative), mean ± SEM): 44700 nM; Kd (human α1B‐adrenoceptor [10]; Log KD, ^3H‐prazosin binding, whole‐cell binding (from Table 1), given as log KD (negative numbers)): 44700 nM; Kd ([12]; 3H‐prazosin binding Log KD, whole‐cell binding (from Table 1), log values given negative): 3890 nM; Kd ([12]; Log KD α1D, ^3H‐prazosin whole cell binding, given as log KD (negative), mean ± SEM, 'early plateau' = specific binding not fully inhibited): 3890 nM
